Source: ChEMBL document CHEMBL4130519, “Resorcinol-Based Grp94-Selective Inhibitors” (ACS Med Chem Lett, 2017)

How the values were obtained:
Endoplasmin = Endoplasmin (Canis lupus familiaris, UniProt P41148); assay: Displacement of FITC-GDA from recombinant canine Grp94 expressed in baculovirus infected Sf21 insect cells after 24 hrs by fluorescence polarization assay; details: read-out: Kd(app)
[1] = molecular target: Heat shock protein HSP 90-alpha (Homo sapiens, UniProt P07900); assay: Displacement of FITC-GDA from Hsp90alpha (unknown origin) after 24 hrs by fluorescence polarization assay; details: read-out: Kd(app)
RPMI-8226 = assay: Growth inhibition of human RPMI8226 cells after 72 hrs by MTS/PMS assay; type: functional; details: RPMI-8226, 72 h
Heat shock protein HSP90 [2] = molecular target: T1, Heat shock protein HSP90 (Homo sapiens, UniProt P07900+P08238); assay: Inhibition of Hsp90 in human RPMI8226 cells assessed as induction of Hsp70 expression at 0.75 to 7.5 uM after 24 hrs by Western blot analysis; type: cell-based
Heat shock protein HSP90 [3] = molecular target: T1, Heat shock protein HSP90; assay: Inhibition of Hsp90 in human RPMI8226 cells assessed as induction of Akt degradation at 0.75 to 7.5 uM after 24 hrs by Western blot analysis; type: cell-based

Sequence of Endoplasmin (P41148 whole entry): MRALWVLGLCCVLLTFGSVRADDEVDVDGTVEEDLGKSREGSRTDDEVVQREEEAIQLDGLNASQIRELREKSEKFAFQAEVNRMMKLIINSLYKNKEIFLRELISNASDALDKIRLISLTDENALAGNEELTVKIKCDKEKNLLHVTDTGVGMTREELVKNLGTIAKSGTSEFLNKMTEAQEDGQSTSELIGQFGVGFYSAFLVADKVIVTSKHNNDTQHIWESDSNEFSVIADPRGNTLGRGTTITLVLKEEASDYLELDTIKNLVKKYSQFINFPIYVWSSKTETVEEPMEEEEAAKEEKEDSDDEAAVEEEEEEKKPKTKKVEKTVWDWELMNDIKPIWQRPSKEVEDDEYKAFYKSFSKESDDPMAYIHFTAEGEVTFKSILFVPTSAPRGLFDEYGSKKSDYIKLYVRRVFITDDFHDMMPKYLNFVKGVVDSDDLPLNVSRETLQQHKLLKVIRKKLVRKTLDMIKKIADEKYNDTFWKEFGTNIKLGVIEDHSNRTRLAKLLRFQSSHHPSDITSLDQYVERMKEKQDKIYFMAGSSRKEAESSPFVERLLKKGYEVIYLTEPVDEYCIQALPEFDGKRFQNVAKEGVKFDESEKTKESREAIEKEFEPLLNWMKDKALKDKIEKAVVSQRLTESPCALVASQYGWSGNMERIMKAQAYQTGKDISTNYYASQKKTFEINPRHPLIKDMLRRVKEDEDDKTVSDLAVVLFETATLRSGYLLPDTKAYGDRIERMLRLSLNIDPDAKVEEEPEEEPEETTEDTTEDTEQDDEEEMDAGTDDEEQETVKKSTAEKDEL

| Structure (SMILES) | Kd (Endoplasmin) | Kd [1] | GI50 (RPMI-8226) | inhibition (INH) (Heat shock protein HSP90 [2]) | inhibition (INH) (Heat shock protein HSP90 [3]) |
| --- | --- | --- | --- | --- | --- |
| O=C(c1cc(N2CCc3ccccc32)c(O)cc1O)N1Cc2ccccc2C1 | 9.89 µM | > 50 µM | – | – | – |
| O=C(c1cc(Sc2ccc(Cl)cc2Cl)c(O)cc1O)N1Cc2ccccc2C1 | 0.059 µM | 0.46 µM | – | – | – |
| COC(=O)c1c(O)cc(O)c(Cl)c1CCc1nccn1Cc1ccccc1 | – | – | 10.2 µM | – | – |
| O=C(c1cc(Br)c(O)cc1O)N1Cc2ccccc2C1 | 0.02 µM | – | – | – | – |
| O=C(c1cc(Cc2ccccc2Cl)c(O)cc1O)N1Cc2ccccc2C1 | 0.06 µM | 0.2 µM | – | – | – |
| O=C(c1cc(Sc2ccccc2O)c(O)cc1O)N1Cc2ccccc2C1 | 0.029 µM | 0.065 µM | – | – | – |
| O=C(c1cc(Sc2ccc(O)cc2)c(O)cc1O)N1Cc2ccccc2C1 | 0.07 µM | 0.052 µM | – | – | – |
| O=C(c1cc(-c2ccccc2)c(O)cc1O)N1Cc2ccccc2C1 | > 100 µM | > 100 µM | > 25 µM | – | – |
| O=C(c1cc(Sc2cc(Cl)cc(Cl)c2)c(O)cc1O)N1Cc2ccccc2C1 | 0.031 µM | 0.029 µM | – | – | – |
| O=C(c1cc(Cc2ccc(F)cc2)c(O)cc1O)N1Cc2ccccc2C1 | 0.008 µM | 0.077 µM | 1.4 µM | Not Active | Not Active |
| O=C(c1cc(Cc2ccc(Cl)cc2)c(O)cc1O)N1Cc2ccccc2C1 | 0.013 µM | 0.06 µM | 3 µM | – | – |
| O=C(c1cc(Cc2ccccc2)c(O)cc1O)N1Cc2ccccc2C1 | 0.015 µM | 0.066 µM | 3.7 µM | – | – |
| O=C(c1cc(Sc2ccccc2)c(O)cc1O)N1Cc2ccccc2C1 | 0.013 µM | 0.026 µM | – | – | – |
| Cc1ccc(Cc2cc(C(=O)N3Cc4ccccc4C3)c(O)cc2O)cc1 | 0.04 µM | 0.04 µM | 2.7 µM | – | – |

The next lines start with the values.

| Kd (Endoplasmin) | Kd [1] | GI50 (RPMI-8226) | inhibition (INH) (Heat shock protein HSP90 [2]) | inhibition (INH) (Heat shock protein HSP90 [3]) | Structure (SMILES) |
| --- | --- | --- | --- | --- | --- |
| 0.03 µM | 0.07 µM | – | – | – | Cc1ccc(Sc2cc(C(=O)N3Cc4ccccc4C3)c(O)cc2O)c(C)c1 |
| 0.034 µM | 0.037 µM | 1.9 µM | – | – | COc1cccc(Sc2cc(C(=O)N3Cc4ccccc4C3)c(O)cc2O)c1 |
| 0.77 µM | 3.52 µM | – | – | – | CCOC(=O)c1cc(C(=O)N2Cc3ccccc3C2)c(O)cc1O |
| > 10 µM | > 10 µM | 13.8 µM | – | – | COC(=O)c1cc(C(=O)N2Cc3ccccc3C2)c(O)cc1O |
| 0.021 µM | 0.066 µM | – | – | – | Cc1ccc(Sc2cc(C(=O)N3Cc4ccccc4C3)c(O)cc2O)cc1C |
| – | – | 0.003 µM | – | – | COC1=C2C[C@@H](C)C[C@H](OC)[C@H](O)[C@@H](C)/C=C(\C)[C@H](OC(N)=O)[C@@H](OC)/C=C\C=C(/C)C(=O)NC(=CC1=O)C2=O [GELDANAMYCIN] |
| 0.029 µM | 0.031 µM | – | – | – | Cc1ccc(C)c(Sc2cc(C(=O)N3Cc4ccccc4C3)c(O)cc2O)c1 |
